The source of these data is paper PMC6014988, “Precision therapeutic targeting of human cancer cell motility” (Nature Communications, 2018).

Series [1] deals with T1, CDC37/HSP90β heterocomplex (Homo sapiens, UniProt P08238+Q16543).
T1 construct: made in house; host or cells: E. coli (Rosetta BL-21 for HSP90β, BL-21 DE-3 for CDC37)
The series is described as follows: DARTS assay with CDC37 and HSP90β combined. It is filed as binding. As to the method:
Fig. 5 KBU2046 stabilizes CDC37/HSP90β heterocomplexes. a KBU2046 stabilizes HSP90β/CDC37 heterocomplexes in a DARTS assay. Equimolar amounts of HSP90β and CDC37 protein were pre-incubated with KBU2046, and resultant thermolysin reaction products were detected by silver stain following SDS-PAGE. […] Atoms within 5 angstroms of KBU2046 are colored by element (carbon, green; nitrogen, blue; oxygen, red). d Potential surface of the whole CDC37/HSP90β dimer (color code: green—HSP90β; gray—CDC37; cyan—Arg167 from CDC37 bisecting the larger pocket and creating a new cleft into which KBU2046 binds)
(§1) Fluorescent thermal shift, isothermal titration calorimetry, and biolayer interferometry assays[46] were all performed as described by us using MEK4EE (37-399, S257E, T261E) cloned into pMCSG7 and KRX Competent E. coli cells (Promega Inc.) and above denoted full-length HSP90B and CDC37 vectors and Rosetta BL-21 and BL-21 DE-3 competent E. coli cells, respectively. DARTS assays were conducted as described, using equimolar amounts of CDC37 and HSP90β, thermolysin digestion, and silver stain visualization (ProteoSilver Silver Stain Kit, Sigma-Aldrich).

Series [2] can be described thus: Plasma KBU2046 concentration after dosing in chow. It is filed as in vivo. The settings on record: Balb/c athymic, mouse, oral. As to the method: For determination of pharmacokinetic (PK) parameters, KBU2046 was administered by either intravenous injection or oral gavage to groups of N = 3 CD1(ICR) mice at 0 (i.e., vehicle only), 25, or 100 mg/kg. Blood was collected into EDTA by terminal cardiac puncture before drug administration (i.e., baseline) and at 5, 10, 15, 30, 45, 60, 90, 120, 180, 240, 360, 480, 960, 1440 min after administration. In separate experiments, as described above, Balb/c athymic mice were dosed with KBU2046 incorporated into chow for 35 days, after which blood was collected by terminal cardiac puncture. Resultant plasma (~250 μl/mouse) was stored at −80 °C.
Plasma KBU2046 concentrations were measured in duplicate by liquid chromatography-tandem mass spectrometry after sample preparation by solid-phase extraction. […] The mass-to-charge ratios of the precursor-to-product ion reactions monitored were 243.5 → 125.1 for KBU2046 and 257.0 → 165.0 for the internal standard. […]

The target in series [3] is T2, MKK4 (Homo sapiens, UniProt P45985, S257E/T261E).
T2 construct: made in house; host or cells: KRX E. coli
T2 sequence (P45985 37-399 S257E/T261E): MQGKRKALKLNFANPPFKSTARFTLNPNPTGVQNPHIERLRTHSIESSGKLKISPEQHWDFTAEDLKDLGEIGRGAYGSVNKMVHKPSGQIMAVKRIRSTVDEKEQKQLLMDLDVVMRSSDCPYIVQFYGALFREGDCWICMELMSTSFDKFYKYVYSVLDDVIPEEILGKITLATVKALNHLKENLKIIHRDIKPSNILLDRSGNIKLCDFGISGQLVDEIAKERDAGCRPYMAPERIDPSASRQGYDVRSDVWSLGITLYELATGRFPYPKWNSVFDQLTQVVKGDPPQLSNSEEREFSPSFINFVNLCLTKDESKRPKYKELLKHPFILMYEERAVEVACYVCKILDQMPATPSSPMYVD
The series is described as follows: Fluorescence-based thermal shift assay, MKK4. It is filed as binding. As to the method: as §1
Supplementary Figure 9. […] (a) Depiction of […]
established MKK4 pathway regulating human PCa cell metastasis. […]
to MKK4, as measured by fluorescence-based thermal shift assay. Values are the mean±SD (of N=2 replicates) increase in melting temperature (ΔTm) of purified recombinant MKK4 induced by the indicated concentrations of KBU2046 or genistein. […]
in an in vitro kinase assay. The indicated concentrations of KBU2046 were added to recombinant activated MKK4, and its ability to phosphorylate kinase dead p38α MAPK (K53A) was measured by Western blot for total (p38 MAPK) and phosphorylated (pp38 MAPK) forms of […]
HSP27 in cells. PC3-M cells were pre-treated for 24 hours with 50 µM KBU2046 or genistein, as indicated, then with TGFβ, and Western blot performed. […]

For series [4], the system named is PC3-M cells. The series can be described thus: Boyden chamber cell invasion assay, PC3-M cells. It is filed as cell-based, human. As to the method:
Boyden chamber cell invasion assays were performed as previously described by us[30], using either denatured collagen (BD Biosciences) or type IV human collagen (BD Biosciences), with all experiments repeated, each in N = 4 replicates. In some experiments, as indicated, cells were transfected with an expression plasmid, using Lipofectamine 2000™ (Invitrogen), or with siRNA, using DharmaFect Duo (Thermo Scientific) and co-transfected with β-Galactosidase (Plasmid pCMV•SPORT-βgal; Life Technology). […]
For cell invasion, PC3-M cells […]
were treated with 10 µM compound for a total of 3 days, and cell invasion assays were run at the end of the 3 day period, in the presence of compound. Values are the mean±SEM of three separate experiments, each run in replicates of N=3. […]
assays were performed with PC3-M cells. Values are the mean±SEM of a single experiment, in replicates of N=4, repeated at least once (also N=4). […]

Like-named read-outs stand apart in the source and are kept apart here.

T1 sequence (P08238 whole entry): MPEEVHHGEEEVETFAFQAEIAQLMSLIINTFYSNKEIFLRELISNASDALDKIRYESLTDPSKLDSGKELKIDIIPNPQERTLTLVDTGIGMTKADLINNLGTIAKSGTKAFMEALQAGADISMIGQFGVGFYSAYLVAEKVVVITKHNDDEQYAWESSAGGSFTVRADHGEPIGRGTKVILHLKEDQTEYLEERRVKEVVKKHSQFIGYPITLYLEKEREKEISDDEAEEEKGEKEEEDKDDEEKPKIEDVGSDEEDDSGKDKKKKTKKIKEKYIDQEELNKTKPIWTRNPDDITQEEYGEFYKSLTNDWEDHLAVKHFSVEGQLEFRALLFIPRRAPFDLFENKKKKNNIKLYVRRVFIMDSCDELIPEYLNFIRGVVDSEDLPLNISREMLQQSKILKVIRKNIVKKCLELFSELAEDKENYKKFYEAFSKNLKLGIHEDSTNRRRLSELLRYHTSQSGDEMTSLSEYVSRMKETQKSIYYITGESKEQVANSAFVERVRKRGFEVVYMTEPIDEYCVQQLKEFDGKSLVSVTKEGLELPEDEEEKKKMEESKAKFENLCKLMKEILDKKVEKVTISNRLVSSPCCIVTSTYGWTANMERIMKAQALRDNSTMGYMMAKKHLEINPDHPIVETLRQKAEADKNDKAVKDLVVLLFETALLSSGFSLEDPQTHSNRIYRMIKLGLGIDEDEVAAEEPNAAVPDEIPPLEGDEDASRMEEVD
T1 sequence (Q16543 whole entry): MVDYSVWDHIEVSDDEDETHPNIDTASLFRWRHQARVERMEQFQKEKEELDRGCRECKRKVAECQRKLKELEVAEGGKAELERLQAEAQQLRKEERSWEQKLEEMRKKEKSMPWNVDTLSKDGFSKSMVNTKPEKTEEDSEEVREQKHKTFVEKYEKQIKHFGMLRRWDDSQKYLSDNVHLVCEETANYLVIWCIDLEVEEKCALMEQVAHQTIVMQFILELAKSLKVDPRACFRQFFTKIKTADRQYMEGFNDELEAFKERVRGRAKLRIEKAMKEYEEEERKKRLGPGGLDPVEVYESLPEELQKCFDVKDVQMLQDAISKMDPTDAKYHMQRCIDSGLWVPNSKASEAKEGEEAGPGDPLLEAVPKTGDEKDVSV

Consider `O=C1c2ccccc2OCC1c1ccc(F)cc1` (racemic) [KBU2046, (±)-3(4-fluorophenyl)chroman-4-one], for which the “concentration at which effects were evident” value in series [1] (CDC37 band increased, HSP90β degradation product decreased) stood at 10 nM. Besides, the “protection from thermolysin digestion” value in series [1] (equimolar HSP90β and CDC37) was “protected both proteins from digestion”. Moreover, the concentration at 35 days in series [2] (150 mg/kg, mice whose metastasis were suppressed by 92%, read-out: plasma concentration) was 0.024 µM; in series [2] (athymic mice, KBU2046 in chow, doses that decreased metastasis, read-out: plasma concentrations), 0.0011 to 0.024 µM. For the same molecule, the “binding to MKK4” value in series [3] was “did not bind to MKK4”. Further, the “anti-invasion efficacy under TGFβ stimulation” value in series [4] (PC3-M cells pretreated, then ± TGFβ) is on record as “retains efficacy”. In addition, in series [4] (PC3-M cells, 10 µM compound, 3 days), the anti-invasion activity result was “anti-invasive efficacy at least equal”.
